In brackets after ≈: the same amount, converted by molar mass.

Data set [1] has as its system Mycobacterium tuberculosis. Format: functional, H37Rv (ATCC 27294), RAW264.7. As to conditions: dose 1 µM; time 5 day.
The nature of data set [2]: Aqueous solubility of compound in HCl at pH 1.2 incubated for 4 hrs by UHPLC-DAD analysis. It is filed as physicochemical.
Data set [3] relates to Mycobacterium tuberculosis. The data set is described as follows: microbe, parasite or virus in culture. As to conditions: H37Rv (ATCC 27294).
A short description of data set [4]: (§1) Cytotoxicity against human HepG2 cells assessed as reduction in cell viability incubated for 72 hrs by MTT assay. Format: toxicity, cell-based. As to conditions: HepG2 cells.
Data set [5] can be described thus: (§2) Cytotoxicity against human HepG2 cells assessed as reduction in cell viability incubated for 72 hrs by neutral red uptake method. It is filed as toxicity, cell-based. As to conditions: HepG2 cells.
Data set [6] is described as follows: (§3) Cytotoxicity against African green monkey Vero cells assessed as reduction in cell viability incubated for 72 hrs by MTT assay. It is filed as toxicity, cell-based. As to conditions: chlorocebus sabaeus, Vero cells. A general note: Tetrazolium assays rely on reduction of a dye to a coloured formazan, in cell work by metabolically active cells.
Data set [7] is described as follows: (§4) Cytotoxicity against African green monkey Vero cells assessed as reduction in cell viability incubated for 72 hrs by neutral red uptake method. It is filed as toxicity, cell-based. As to conditions: chlorocebus sabaeus, Vero cells.
For data set [8], the system named is HepG2. The description is as §1. It is filed as toxicity, cell-based. As to conditions: hepg2, 72 h.
Data set [9] relates to HepG2. The data set is described as §2. Format: toxicity, cell-based. As to conditions: hepg2, 72 h.
In data set [10] the test system is Vero. Described as §3. Format: toxicity, cell-based. The following applies: chlorocebus sabaeus, vero, 72 h.
Data set [11] deals with Vero. The data set is described as §4. Format: toxicity, cell-based. The following applies: chlorocebus sabaeus, vero, 72 h.
Data set [12] in a line: Aqueous solubility of compound in PBS at pH 7.4 incubated for 4 hrs by UHPLC-DAD analysis. Format: physicochemical.
The nature of data set [13]: Aqueous solubility of compound in NH4HCO3 at pH 9.1 incubated for 4 hrs by UHPLC-DAD analysis. It is filed as physicochemical. The following applies: NH4HCO3, pH 9.1.
Data set [14] relates to Staphylococcus aureus. Format: functional. As to conditions: ATCC 25923, time 24 hrs.
The subject of data set [15] is Escherichia coli. It is filed as functional. As to conditions: ATCC 25922, time 24 hrs.
For data set [16], the system named is Acinetobacter baumannii. Format: functional. The following applies: time 24 hrs.
The subject of data set [17] is Klebsiella pneumoniae. Format: functional. As to conditions: time 24 hrs.
Data set [18] in a line: Chemical stability of compound in 0.1 M HCl solution at pH 1.2 assessed as parent compound remaining at 10 uM measured after 24 hrs by HPLC-MS/MS analysis. Format: physicochemical. The following applies: read-out: Stability.
Data set [19] is described as follows: Chemical stability of compound in PBS at pH 7.4 assessed as parent compound remaining at 10 uM measured after 24 hrs by HPLC-MS/MS analysis. It is filed as physicochemical. The following applies: read-out: Stability.
Data set [20] is described as follows: Chemical stability of compound in 0.1M NH4HCO3 solution at pH 9.1 assessed as parent compound remaining at 10 uM measured after 24 hrs by HPLC-MS/MS analysis. The following applies: read-out: Stability. Format: physicochemical.
The nature of data set [21]: Permeability of compound at pH 7.4 at 10 uM measured after 5 hrs by PAMPA assay. It is filed as ADME. As to conditions: read-out: permeability. Background: PAMPA measures passive passage across an artificial lipid membrane.
The nature of data set [22]: Metabolic stability in rat liver microsomes assessed as intrinsic clearance at 2 uM measured upto 30 mins in presence of NADPH by HPLC-MS/MS analysis. It is filed as ADME, Microsome. As to conditions: read-out: CLH. A general note: Liver microsomes are vesicles of endoplasmic reticulum, rich in cytochrome P450 enzymes.
The nature of data set [23]: Metabolic stability in rat liver microsomes assessed as half-life at 2 uM measured upto 30 mins in presence of NADPH by HPLC-MS/MS analysis. It is filed as ADME, Microsome.
Data set [24] concerns Mycobacterium tuberculosis. Format: functional, H37Rv (ATCC 27294), RAW264.7. The following applies: dose 1 µM; time 5 day. This is another data set of the same source.
For data set [25], the system named is Mycobacterium tuberculosis. It is filed as functional, H37Rv (ATCC 27294), RAW264.7. The following applies: dose 5 µM; time 5 day.
A short description of data set [26]: Drug concentration in male CF1 mouse plasma at 300 mg/kg, po administered via gavage and measured after […] by UHPLC-DAD analysis. As to conditions: time 0.25 hrs. Format: ADME, organism-based.
The nature of data set [27]: Drug concentration in male CF1 mouse plasma at 300 mg/kg, po administered via gavage and measured after 0.5 hrs by UHPLC-DAD analysis. Format: ADME, organism-based.
Data set [28] can be described thus: Drug concentration in male CF1 mouse plasma at 300 mg/kg, po administered via gavage and measured after 0.75 hrs by UHPLC-DAD analysis. Format: ADME, organism-based.
Data set [29] in a line: Drug concentration in male CF1 mouse plasma at 300 mg/kg, po administered via gavage and measured after 1 hrs by UHPLC-DAD analysis. It is filed as ADME, organism-based.
Data set [30] is described as follows: Drug concentration in male CF1 mouse plasma at 300 mg/kg, po administered via gavage and measured after 4 hrs by UHPLC-DAD analysis. Format: ADME, organism-based.
A short description of data set [31]: Drug concentration in male CF1 mouse plasma at 300 mg/kg, po administered via gavage and measured after 8 hrs by UHPLC-DAD analysis. Format: ADME, organism-based.
Data set [32] is described as follows: Half-life in male CF1 mouse at 300 mg/kg, po administered via gavage and measured after 8 hrs by UHPLC-DAD analysis. The following applies: in vivo. It is filed as ADME, organism-based.
The nature of data set [33]: Elimination rate constant in male CF1 mouse at 300 mg/kg, po administered via gavage and measured after 8 hrs by UHPLC-DAD analysis. Format: ADME, organism-based. The following applies: in vivo.

In data set [1], `NNC(=O)c1ccncc1` [ISONIAZID] showed an Activity of 2.25 log10CFU.
In the case of `CCc1ccc(NCCCOc2cc(C)nc3ccc(OC)cc23)cc1`, the concentration in solution in data set [2] (solubility at 4 h) was 2650 µM (≈ 929 µg/mL). Further, the MIC in data set [3] came out at 0.06 µM (≈ 0.021 µg/mL).
Consider `CCc1ccc(NCCCOc2cc(CC)nc3ccc(Br)cc23)cc1`, for which the CC50 – broadly, the concentration that lowers cell viability or growth by half – at 72 h in data set [4] was over 20 µM; in [5] it was 8.3 µM; in data set [6] it was over 20 µM; in [7], 9.1 µM. The compound also had an MIC in data set [3] of 0.1 µM (≈ 0.0413 µg/mL).
On to `Cc1cc(OCCCNc2ccc(Cl)cc2)c2cc(Br)ccc2n1`, for which the CC50 at 72 h in data set [4] and in [5] was over 20 µM each time. Also, the solubility (commonly the dissolved amount per volume that the medium holds) at 4 h in data set [2] was over 2470 µM.
With `Cc1cc(OCCCNc2ccc(Br)cc2)c2cc(Cl)ccc2n1`, the CC50 at 72 h in data set [4] is 0.3 µM; in data set [6] it was under 1 µM. The same compound had an MIC in data set [3] of 1.55 µM (≈ 0.629 µg/mL).
Turning to `CCc1ccc(NCCCOc2cc(C)nc3ccc(Cl)cc23)cc1`, the CC50 result in data set [8], in data set [9], in data set [10] and in data set [11] was “Not_determined(Insoluble)” each time. The solubility at 4 h stood at 0.06 µM (≈ 0.0213 µg/mL) in data set [12], 200 µM (≈ 71 µg/mL) in [2] and 0.37 µM (≈ 0.131 µg/mL) in data set [13]. Besides, the MIC in [3] turned out to be 0.03 µM (≈ 0.0106 µg/mL).
Turning to `CCc1ccc(NCCCOc2cc(C)nc3ccc(Br)cc23)cc1`, the CC50 at 72 h in data set [4], in [5] and in [6] was over 20 µM each time. Besides, in [2], the solubility at 4 h is over 2500 µM. Moreover, the MIC in data set [14], in data set [15], in [16] and in [17] was over 20 µM in each case. For the same compound, the remaining at 24 h, 10 µM in data set [18] worked out at 100%; in data set [19] it was 5.3%; in data set [20] it was 6%. Also, the Papp at 5 h, 10 µM in [21] is 0.2 ×10⁻⁶ cm/s. Besides, the CLint scaled at 2 µM in data set [22] worked out at 58 mL/min/kg. The half-life (as a rule, how long it takes for the measured level to halve) at 2 µM in data set [23] was 7 min. Besides, the Activity in data set [24] was 3.9 log10CFU; in [25], 4.1 log10CFU. Besides, the concentration at […] in data set [26] was 7.49 µM. Besides, in data set [27], the concentration at 0.5 h came out at 11.1 µM. For the same compound, the concentration at 0.75 h in data set [28] worked out at 15.7 µM. In addition, the concentration at 1 h in data set [29] was 32.1 µM. This compound gave a concentration at 4 h in [30] of 13.5 µM. The same compound came in with a concentration at 8 h in data set [31] of 9.8 µM. Further, in data set [32], the half-life was 4.3 h. In addition, the k el at 8 h in data set [33] was 4.44e-05 s⁻¹.
Take `COc1ccc2nc(C)cc(OCCCNc3ccc(I)cc3)c2c1`: the CC50 at 72 h worked out at 10.6 µM in [4], 12.8 µM in [5], 8.2 µM in data set [6] and 7.5 µM in data set [7]. Also, the solubility at 4 h in data set [2] is over 2230 µM. Moreover, the MIC in [3] is 0.09 µM (≈ 0.0403 µg/mL).
As to `COc1ccc2nc(C)cc(OCCCNc3ccc(Br)cc3)c2c1`, the CC50 at 72 h was 15.3 µM in data set [4], 16.8 µM in [5], over 20 µM in [6] and 12.8 µM in data set [7]. Further, the solubility at 4 h in [2] was over 2500 µM. The same compound gave an MIC in [3] of 0.1 µM (≈ 0.0401 µg/mL).

(Values after ChEMBL document CHEMBL6078678, “Unveiling the Antimycobacterial Potential of Novel 4-Alkoxyquinolines: Insights into Selectivity, Mechanism of Action, and In Vivo Exposure” (J Med Chem, 2024).)
